Data set [1] has as its target T1, synthetic D4 receptor (Homo sapiens, UniProt P21917, DEL265-296).
T1 sequence (P21917 with tags, fused parts or gaps DEL271-302): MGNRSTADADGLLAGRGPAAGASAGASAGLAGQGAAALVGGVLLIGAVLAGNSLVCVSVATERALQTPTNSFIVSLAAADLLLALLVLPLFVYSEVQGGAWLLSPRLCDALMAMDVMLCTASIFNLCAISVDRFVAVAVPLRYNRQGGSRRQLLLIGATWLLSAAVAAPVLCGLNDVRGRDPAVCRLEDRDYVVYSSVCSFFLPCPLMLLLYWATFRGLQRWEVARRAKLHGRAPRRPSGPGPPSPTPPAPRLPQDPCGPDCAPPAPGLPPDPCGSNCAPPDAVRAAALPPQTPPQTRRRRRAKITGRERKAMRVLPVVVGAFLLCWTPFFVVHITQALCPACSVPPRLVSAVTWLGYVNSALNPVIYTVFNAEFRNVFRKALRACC
Nature of the data set: (3H)spiperone radioligand binding, membranes of LacI (CHO) cells expressing synthetic D4 receptor (line D4-19). Also on record: expressed in transfected cells. The conditions noted are these: Scatchard transformation of saturation binding; line D4-19, IPTG induced. On the procedure:
(§1) LacI synthetic D4 transfected cells were grown in the presence of 100 μM IPTG for 48 hours prior to harvest. Cells grown in 100 mm dishes were rinsed once with 5 mls of ice cold Ca^2+ /Mg^2+ free PBS and scraped into 5 mls of the same buffer. Cells were pelleted (500×g, 5 minutes), and resuspended in 25 mM Tris, 5 mM EDTA, 5 mM EGTA, pH 7.5 (TEE), and frozen in liquid nitrogen. After thawing, the cells were homogenized and centrifuged at 1,000×g to remove nuclei and unbroken cells. The supernatant was centrifuged at 20,000×g, the membrane pellet was washed once with TEE, resuspended in binding buffer, and frozen in liquid nitrogen. Membrane aliquots were stored at -70° C.
(§2) Incubations were for 1 hour at 30° C. Assays were stopped by filtration through Whatman GF/B filters followed by 2×10 ml washes with ice cold 50 mM Tris, pH 7.5. The filters were counted by liquid scintillation spectroscopy.

The target in data set [2] is T1, synthetic D4 receptor. Kind of data set: (3H)spiperone radioligand binding, membranes of HEK293 cells expressing synthetic D4 receptor (line D4-24). Also on record: expressed in transfected cells; host or cells: HEK293 cells (EBV-based vector pCEP4), line D4-24. On the procedure:
Each point is the mean of duplicates with non-specific binding subtracted.
as §1, §2

In a further data set the test system is D4 receptors. As to conditions: CHO cells expressing D4 receptors.
A further data set relates to schizophrenics. As to conditions: unlike other antipsychotic drugs; Casey (1989); cited from earlier work.

Procedure for D4 receptors: AMP accumulation was measured in intact D4-19 cells plated at a density of 15,000 cells/well in a 24 well plate 48 hours prior to the experiment. The cells were incubated in serum free medium 1 hour prior to the experiment. Fresh medium (0.5 ml) containing 100 μM forskolin, 100 μM IBMX and varying concentrations of drugs were added to each well and cAMP was allowed to accumulate for 15 minutes at 30° C. The reactions were terminated by the removal of the medium and the addition of 100 μl cold 7.5% (TCA) trichloroacetic acid. The samples were diluted by the addition of 1.0 ml 50 mM sodium acetate, pH 6.2 and aliquots were assayed by RIA using Biomedical Technologies Incorporated cAMP RIA kit.
cAMP accumulation was measured in forskolin stimulated cells as described in methods. Dopamine (10 μM) was added to 3 wells (DA). […] The bars are the averages of the three wells expressed as the percentage of the forskolin response.

`O=C(CCCN1CCC2(CC1)C(=O)NCN2c1ccccc1)c1ccc(F)cc1` [(^3 H)-spiperone]: the Bmax stood at 260 fmol/mg protein on synthetic D4 receptor [1] and 736 fmol/mg protein on synthetic D4 receptor [2] (Scatchard analysis of saturation binding, line D4-24 (FIG. 4)). Further, the “receptor expression over passages (3H-spiperone binding)” value at synthetic D4 receptor [2] (D4-24 cells, 540 pM 3H-spiperone, up to at least 12 passages over 10 weeks (FIG. 5)) was “remains constant”.

Turning to `NCCc1ccc(O)c(O)c1` [dopamine], in the data set on D4 receptors (10 μM dopamine, forskolin stimulated (FIG. 6)), the “inhibition of cAMP accumulation” value was “Inhibition of cAMP accumulation”.

For the compound `CN1CCN(C2=Nc3cc(Cl)ccc3Nc3ccccc32)CC1` [clozapine], the tardive dyskinesia result in the data set with schizophrenics is “does not cause tardive dyskinesia”. Moreover, the “antagonism of dopamine inhibition of cAMP accumulation” value in the data set on D4 receptors (10 μM clozapine with 10 μM dopamine (FIG. 6)) is given as “Antagonism”.

The values above are taken from patent US5468615A, “Binding assay employing a synthetic gene for D4 dopamine receptors” (The Upjohn Company, priority 1993, dated 1995).
